Measured values as given in patent US20030166598A1, “Medicines for treating tumoral pathologies containing the ro5-4864 compound and an apoptosis-inducing agent” (priority 2000, published 2003).

Key:
[1] = test system: SCLC6 small-cell bronchial carcinoma; experiment: SCLC6 human tumour xenotransplanted in nude mice, tumour growth; type: in vivo, mouse; conditions: etoposide 12 mg/kg/day + ifosfamide 90 mg/kg/day D1 to D3 + RO5-4864 40 mg/kg/day D1 to D3, p<0.05
SNB79 (glioblastoma) = experiment: Cell viability (methylene blue test) with CH11 anti-FasR antibody, SNB79 line; type: cell-based, human
Experimental: (§1) The human lines Jurkat (lymphoid T), SHEP (neuroblastoma) transfected with a control vector or with a bcl-2 or bcl-XL vector, 143N2 (osteosarcoma) and SNB79 (glioblastoma) were cultured in DMEM or RPMI 1640 (Sigma Chemical Co., St Louis, Mo.) supplemented with FCS 10% (Dutscher, Brumath, France), penicillin G (10^2 IU/mI)+streptomycin (50 μg/ml) (Sigma) and L-glutamine ([…], Sigma).
(§2) The cells were cultured in the presence of anti-Fas receptor antibody CH11 (1 μg/ml; Immunotech, Marseilles, France) concomitantly or after exposure to RO5-4864 (BioBlock Scientific, Illkirch, France), diazepam (Roche, Neuilly sur Seine, France), or PK11195 (BioBlock), at various concentrations.
(§3) Cell viability was measured by testing with methylene blue (Dimanche-Boitrel et al., 1992).
4. FIG. 4: culture of the SNB79 line in the presence of CH11 with (•) or without (o) RO5-4864. Evaluation of cell viability (test with methylene blue; percentage of cells on the ordinate), as a function of the concentration (μM) of Ro5-4864.

143N2 (osteosarcoma) = experiment: Cell viability (methylene blue test) with CH11 anti-FasR antibody, 143N2 line; type: cell-based, human
Experimental: as §1, §2, §3
3. FIG. 3: culture of the 143N2 line in the presence of CH11 with (black histograms) or without (grey histograms) RO5-4864, PK11195 or diazepam. Evaluation of cell viability (test with methylene blue; percentage of cells on ordinate), as a function of the concentration of RO5-4864 (100 μM or RO 100, 200 μM or RO 200), PK11195 (50 μM or PK50, 80 μM or PK 80) and DIAZEPAM (50 μM or DIA50, 80 μM or DIA80).

[2] = test system: SCLC61 small-cell bronchial carcinoma; experiment: SCLC61 human tumour xenotransplanted in nude mice, tumour growth; type: in vivo, mouse
[3] = test system: SHEP-control (neuroblastoma transfected with a control vector); experiment: Cell viability (methylene blue test) with CH11 anti-FasR antibody, SHEP-control line; type: cell-based, human
Experimental: as §1, §2, §3
(§4) 2. FIG. 2: culture of the SHEP control lines (SHEP.control), of SHEP lines transfected with bcl2 (SHEP.Bcl2), and of SHEP lines transfected with bclXL (SHEP.BClXL), in the presence of CH11 with (black histograms) or without (grey histograms) RO5-4864. Evaluation of cell viability (test with methylene blue; percentage of cells on ordinate), as a function of the concentration of RO5-4864 (0, 100 μM or RO100, 200 μM or RO 200).

Jurkat (lymphoid T) = experiment: Quantification of apoptosis in Jurkat cells cultured with anti-Fas receptor antibody CH11 and PBR ligands; type: cell-based, human; conditions: for potentiation of the apoptotic effect of the CH11 anti-FasR antibody: FIGS. 1A and 1B; for proportion of subdiploid (apoptotic) cells: ligand at 60 μM in combination with CH11 anti-FasR antibody
Experimental: as §1, §2
Lipophilic fluorochrome DiOC6(3) (Molecular Probes, Eugene, Oreg.) was used for measuring the membrane potential of the mitochondria (Δψm). Briefly, the cells were incubated for 15 min at 37° C. in the presence of 40 nM of DiOC6(3), with immediate analysis of the incorporation of fluorescence on a type Epics Profile II cytofluorometer (Coulter, Miami, Fla.). Hydroethydine (HE) (2 μM, 15 min at 37° C., Molecular Probes) was used for measuring the production of superoxide anion (Marchetti et al., 1996). Finally, the proportion of cells that had lost part of the chromosomal DNA (subdiploid cells) was determined with propidium iodide on cells fixed in ethanol (Nicoletti et al., 1991).
1. FIG. 1: culture of Jurkat cells in the presence of CH11 with (white histograms) or without (black histograms) RO5-4864, PK11195 or diazepam.

SHEP bcl-XL = experiment: Cell viability (methylene blue test) with CH11 anti-FasR antibody, SHEP bcl-XL line; type: cell-based, human
Experimental: as §1, §2, §3, §4

SHEP-bcl-2 = experiment: Cell viability (methylene blue test) with CH11 anti-FasR antibody, SHEP-bcl-2 line; type: cell-based, human
Experimental: as §1, §2, §3, §4

| Compound | antitumour effect of the chemotherapy with RO5-4864 [1] | reversal of resistance to the CH11 anti-FasR antibody (SNB79 (glioblastoma)) | reversal of resistance to the CH11 anti-FasR antibody (143N2 (osteosarcoma)) | tumour growth ([2]; RO5-4864 alone, 12 mg/kg/day s.c. D1 to D3) | antitumour effect of etoposide with concomitant RO5-4864 ([2]; etoposide 12 mg/kg/day i.p. D1 to D3 + RO5-4864 12 mg/kg/day s.c. D1 to D3, p<0.005) | reversal of resistance to the CH11 anti-FasR antibody [3] | potentiation of the apoptotic effect of the CH11 anti-FasR antibody (Jurkat (lymphoid T)) | proportion of subdiploid (apoptotic) cells (Jurkat (lymphoid T)) [%] | reversal of resistance to the CH11 anti-FasR antibody (SHEP bcl-XL) | reversal of resistance to the CH11 anti-FasR antibody (SHEP-bcl-2) |
| --- | --- | --- | --- | --- | --- | --- | --- | --- | --- | --- |
| CN1C(=O)CN=C(c2ccc(Cl)cc2)c2cc(Cl)ccc21 [RO5-4864, 4′-chlorodiazepam] | increased | reverses the resistance | reverses the resistance | not altered | increased | reverses the resistance | potentiate the apoptotic effect | 73 | reverses the resistance | reverses the resistance |
| CCC(C)N(C)C(=O)c1cc2ccccc2c(-c2ccccc2Cl)n1 (stereo not drawn) [PK11195] |  | only observed with diazepam and PK11195 on the line SHEP-control | only observed with diazepam and PK11195 on the line SHEP-control |  |  | observed | potentiate the apoptotic effect | 25 | only observed with diazepam and PK11195 on the line SHEP-control | only observed with diazepam and PK11195 on the line SHEP-control |
| CN1C(=O)CN=C(c2ccccc2)c2cc(Cl)ccc21 [diazepam] |  | only observed with diazepam and PK11195 on the line SHEP-control | only observed with diazepam and PK11195 on the line SHEP-control |  |  | observed | potentiate the apoptotic effect | 20 | only observed with diazepam and PK11195 on the line SHEP-control | only observed with diazepam and PK11195 on the line SHEP-control |
